Measurements reported in patent US20170157135A1 (Novogen Limited, priority 2013, published 2017).

Tests used:
Type in all cases: cell-based
[1] = test system: SK-N-SH neuroblastoma cells; experiment: Anti-proliferative assay (cell-titre luminescent), SK-N-SH; conditions: Homo sapiens, 72 hours, luminescence
Method: (§1) The ability of compounds 2002, 2009 and 2013-2064 to inhibit the proliferation of cancer cells representative of neuroblastoma, melanoma, prostate cancer, colorectal cancer, non-small cell lung carcinoma, and triple negative breast cancer was assessed. These studies were conducted by contract research (GVK-BIO). Briefly, a pre-determined number of cells as calculated from cell growth assays for each of the cell lines employed were seeded into their respective culture medium (using ATCC culture parameters—http://www.atcc.org) and cultured for 24 h at 37° C. and 5% CO2 in 96-well culture plates. Once attached, each cell line was then exposed to various concentrations of each respective analogue (30, 10, 3, 1, 0.3 and 0.1 μM), cultured for a further 72 hours and exposed to cell-titre luminescent reagent (100 μL/well) for a further 30 minutes). Luminescence was captured using an EnVision multilabel reader and the data for each analogue concentration compared against no treatment control. Cell viability was normalized to control (vehicle alone) and dose-response curves, and half maximal effective concentration (EC50) values were determined using Graph Pad Prism 6 (nonlinear regression sigmoidal dose-response variable slope).

SK-Mel-28 melanoma cells = experiment: Anti-proliferative assay (cell-titre luminescent), SK-Mel-28; conditions: Homo sapiens; SK-Mel-28, 72 hours, luminescence
Method: as §1

[2] = test system: DU145 prostate cancer cells; experiment: Anti-proliferative assay (cell-titre luminescent), DU145; conditions: Homo sapiens, DU-145; DU145, 72 hours, luminescence
Method: as §1

[3] = test system: PC3 prostate cancer cells; experiment: Anti-proliferative assay (cell-titre luminescent), PC3; conditions: PC3, 72 hours, luminescence
Method: as §1

[4] = test system: CaCo2 colorectal cancer cells; experiment: Anti-proliferative assay (cell-titre luminescent), CaCo2; conditions: Homo sapiens, Caco-2; CaCo2, 72 hours, luminescence
Method: as §1

A549 lung (NSLC) cells = experiment: Anti-proliferative assay (cell-titre luminescent), A549; conditions: Homo sapiens; A549, 72 hours, luminescence
Method: as §1

[5] = test system: MDA-MB-231 breast cancer cells; experiment: Anti-proliferative assay (cell-titre luminescent), MDA-MB-231; conditions: Homo sapiens; MDA-MB-231, 72 hours, luminescence
Method: as §1

Row | SMILES | IC50 [1] | IC50 (SK-Mel-28 melanoma cells) | IC50 [2] | IC50 [3] | IC50 [4] | IC50 (A549 lung (NSLC) cells) | IC50 [5]
1 | COc1ccc(CCN2CCN(C(=O)/C=C/c3c(C)n(CCCN(C)C)c4ccccc34)CC2)cc1 [Compound 2013, (E)-3-(1-(3-(dimethylamino)propyl)-2-methyl-1H-indol-3-yl)-1-(4-(4-methoxyphenethyl)piperazin-1-yl)prop-2-en-1-one] | 3.2 µM | 3.8 µM | 10 µM | 4.8 µM | 9.1 µM | 6.1 µM | 6.8 µM
2 | Cc1c(/C=C/C(=O)N2CCN(CCc3cccc(F)c3)CC2)c2ccccc2n1CCCN(C)C [Compound 2015, (E)-3-(1-(3-(dimethylamino)propyl)-2-methyl-1H-indol-3-yl)-1-(4-(3-fluorophenethyl)piperazin-1-yl)prop-2-en-1-one] | 8.8 µM | 3.9 µM | 39.2 µM | 12.4 µM | 15.9 µM | 14.1 µM | 21.1 µM
3 | COc1cccc(CCN2CCN(C(=O)/C=C/c3c(C)n(CCCN(C)C)c4ccccc34)CC2)c1 [Compound 2016, (E)-3-(1-(3-(dimethylamino)propyl)-2-methyl-1H-indol-3-yl)-1-(4-(3-methoxyphenethyl)piperazin-1-yl)prop-2-en-1-one] | 5 µM | 4.1 µM | 5.4 µM | 5.8 µM | 8.9 µM | 4.8 µM | 10.8 µM
4 | Cc1c(/C=C/C(=O)N2CCN(CCc3ccccc3)CC2)c2ccccc2n1CCCN(C)C [Compound 2017, (E)-3-(1-(3-(dimethylamino)propyl)-2-methyl-1H-indol-3-yl)-1-(4-phenethylpiperazin-1-yl)prop-2-en-1-one] | 17.6 µM | 8.7 µM | 15.7 µM | 11.5 µM | 12.6 µM | 13.6 µM | 18.5 µM
5 | COc1ccc2c(c1)c(/C=C/C(=O)N1CCN(CCc3cccc(F)c3)CC1)c(C)n2CCCN(C)C [Compound 2021, (E)-3-(1-(3-(dimethylamino)propyl)-5-methoxy-2-methyl-1H-indol-3-yl)-1-(4-(3-fluorophenethyl)piperazin-1-yl)prop-2-en-1-one] | 5.4 µM | 4.3 µM | 6.9 µM | 7.2 µM | 7.4 µM | 5.4 µM | 4.8 µM
6 | CCN(CC)CCCn1c(C)c(/C=C/C(=O)N2CCN(CCc3ccc(OC)cc3)CC2)c2cc(OC)ccc21 [Compound 2024, (E)-3-(1-(3-(diethylamino)propyl)-5-methoxy-2-methyl-1H-indol-3-yl)-1-(4-(4-methoxyphenethyl)piperazin-1-yl)prop-2-en-1-one] | 3.4 µM | 3 µM | 8.4 µM | 5.7 µM | 5.3 µM | 7.7 µM | 4.1 µM
7 | CCN(CC)CCCn1c(C)c(/C=C/C(=O)N2CCN(CCc3ccccc3)CC2)c2cc(OC)ccc21 [Compound 2028, (E)-3-(1-(3-(diethylamino)propyl)-5-methoxy-2-methyl-1H-indol-3-yl)-1-(4-phenethylpiperazin-1-yl)prop-2-en-1-one] | 2.7 µM | 2 µM | 5.3 µM | 5.3 µM | 4.1 µM | 4.2 µM | 5.2 µM
8 | COc1ccc(CCN2CCN(C(=O)/C=C/c3c(C)n(CCCN4CCN(C)CC4)c4ccc(OC)cc34)CC2)cc1 [Compound 2030, (E)-3-(5-methoxy-2-methyl-1-(3-(4-methylpiperazin-1-yl)propyl)-1H-indol-3-yl)-1-(4-(4-methoxyphenethyl)piperazin-1-yl)prop-2-en-1-one] | 3.6 µM | 3.4 µM | 7.9 µM | 4 µM | 5.4 µM | 7.9 µM | 4.3 µM
9 | COc1ccc2c(c1)c(/C=C/C(=O)N1CCN(CCc3ccc4c(c3)OCO4)CC1)c(C)n2CCCN1CCN(C)CC1 [Compound 2031, (E)-1-(4-(2-(benzo[d][1,3]dioxol-5-yl)ethyl)piperazin-1-yl)-3-(5-methoxy-2-methyl-1-(3-(4-methylpiperazin-1-yl)propyl)-1H-indol-3-yl)prop-2-en-1-one] | 3.7 µM | 3.9 µM | 6.2 µM | 2.1 µM | 3.7 µM | 4.2 µM | 5.2 µM

Now from value to molecule:

Row | IC50 [1] | IC50 (SK-Mel-28 melanoma cells) | IC50 [2] | IC50 [3] | IC50 [4] | IC50 (A549 lung (NSLC) cells) | IC50 [5] | SMILES
10 | 3.7 µM | 3.2 µM | 7.6 µM | 6.5 µM | 9 µM | 25.7 µM | 6.2 µM | Cc1c(/C=C/C(=O)N2CCN(CCc3ccc4c(c3)OCO4)CC2)c2ccccc2n1CCCN(C)C [Compound 2014, (E)-1-(4-(2-(benzo[d][1,3]dioxol-5-yl)ethyl)piperazin-1-yl)-3-(1-(3-(dimethylamino)propyl)-2-methyl-1H-indol-3-yl)prop-2-en-1-one]
11 | 8.5 µM | 4.3 µM | 12.1 µM | 8 µM | 38 µM | 15.9 µM | 5.7 µM | COc1ccc2c(c1)c(/C=C/C(=O)N1CCN(CCc3ccc(F)cc3)CC1)c(C)n2CCCN(C)C [Compound 2018, (E)-3-(1-(3-(dimethylamino)propyl)-5-methoxy-2-methyl-1H-indol-3-yl)-1-(4-(4-fluorophenethyl)piperazin-1-yl)prop-2-en-1-one]
12 | 5.5 µM | 6.3 µM | 14.8 µM | 9.3 µM | 25.1 µM | 10.6 µM | 5.1 µM | COc1ccc(CCN2CCN(C(=O)/C=C/c3c(C)n(CCCN(C)C)c4ccc(OC)cc34)CC2)cc1 [Compound 2019, (E)-3-(1-(3-(dimethylamino)propyl)-5-methoxy-2-methyl-1H-indol-3-yl)-1-(4-(4-methoxyphenethyl)piperazin-1-yl)prop-2-en-1-one]
13 | 3.9 µM | 3.5 µM | 5.7 µM | 5.1 µM | 4.5 µM | 3.5 µM | 5.1 µM | COc1ccc2c(c1)c(/C=C/C(=O)N1CCN(CCc3ccc4c(c3)OCO4)CC1)c(C)n2CCCN(C)C [Compound 2020, (E)-1-(4-(2-(benzo[d][1,3]dioxol-5-yl)ethyl)piperazin-1-yl)-3-(1-(3-(dimethylamino)propyl)-5-methoxy-2-methyl-1H-indol-3-yl)prop-2-en-1-one]
14 | 12.5 µM | 17.2 µM | 22 µM | 7.6 µM | 21.5 µM | 12.7 µM | 11.3 µM | COc1cccc(CCN2CCN(C(=O)/C=C/c3c(C)n(CCCN(C)C)c4ccc(OC)cc34)CC2)c1 [Compound 2022, (E)-3-(1-(3-(dimethylamino)propyl)-5-methoxy-2-methyl-1H-indol-3-yl)-1-(4-(3-methoxyphenethyl)piperazin-1-yl)prop-2-en-1-one]
15 | 3.6 µM | 2.7 µM | 4.4 µM | 5.6 µM | 10.3 µM | 5.2 µM | 4.6 µM | CCN(CC)CCCn1c(C)c(/C=C/C(=O)N2CCN(CCc3ccc(F)cc3)CC2)c2cc(OC)ccc21 [Compound 2023, (E)-3-(1-(3-(diethylamino)propyl)-5-methoxy-2-methyl-1H-indol-3-yl)-1-(4-(4-fluorophenethyl)piperazin-1-yl)prop-2-en-1-one]
16 | 4.1 µM | 4.1 µM | 15.6 µM | 7.6 µM | 16.5 µM | 4.7 µM | 30 µM | CCN(CC)CCCn1c(C)c(/C=C/C(=O)N2CCN(CCc3ccc4c(c3)OCO4)CC2)c2cc(OC)ccc21 [Compound 2025, (E)-1-(4-(2-(benzo[d][1,3]dioxol-5-yl)ethyl)piperazin-1-yl)-3-(1-(3-(diethylamino)propyl)-5-methoxy-2-methyl-1H-indol-3-yl)prop-2-en-1-one]
17 | 8.2 µM | 3.8 µM | 51.9 µM | 9.3 µM | 12.3 µM | 23.5 µM | 5.6 µM | CCN(CC)CCCn1c(C)c(/C=C/C(=O)N2CCN(CCc3cccc(OC)c3)CC2)c2cc(OC)ccc21 [Compound 2027, (E)-3-(1-(3-(diethylamino)propyl)-5-methoxy-2-methyl-1H-indol-3-yl)-1-(4-(3-methoxyphenethyl)piperazin-1-yl)prop-2-en-1-one]
18 | 2.8 µM | 5.7 µM | 4.2 µM | 2.9 µM | 4.4 µM | 4.5 µM | 3.3 µM | COc1ccc2c(c1)c(/C=C/C(=O)N1CCN(CCc3ccc(F)cc3)CC1)c(C)n2CCCN1CCN(C)CC1 [Compound 2029, (E)-1-(4-(4-fluorophenethyl)piperazin-1-yl)-3-(5-methoxy-2-methyl-1-(3-(4-methylpiperazin-1-yl)propyl)-1H-indol-3-yl)prop-2-en-1-one]
